For 21 compounds, AC50 results are on record in patent US20260138961A1, “MODULATORS OF MITOCHONDRIAL DNA REPLICATION” (Pretzel Therapeutics, Inc., priority 2022, published 2026).

Molecules are shown by their SMILES.

For the assay, the target named is T1, POLγA:G848S (Homo sapiens, UniProt P54098, G848S).
T1 sequence (P54098 1-1239 G848S): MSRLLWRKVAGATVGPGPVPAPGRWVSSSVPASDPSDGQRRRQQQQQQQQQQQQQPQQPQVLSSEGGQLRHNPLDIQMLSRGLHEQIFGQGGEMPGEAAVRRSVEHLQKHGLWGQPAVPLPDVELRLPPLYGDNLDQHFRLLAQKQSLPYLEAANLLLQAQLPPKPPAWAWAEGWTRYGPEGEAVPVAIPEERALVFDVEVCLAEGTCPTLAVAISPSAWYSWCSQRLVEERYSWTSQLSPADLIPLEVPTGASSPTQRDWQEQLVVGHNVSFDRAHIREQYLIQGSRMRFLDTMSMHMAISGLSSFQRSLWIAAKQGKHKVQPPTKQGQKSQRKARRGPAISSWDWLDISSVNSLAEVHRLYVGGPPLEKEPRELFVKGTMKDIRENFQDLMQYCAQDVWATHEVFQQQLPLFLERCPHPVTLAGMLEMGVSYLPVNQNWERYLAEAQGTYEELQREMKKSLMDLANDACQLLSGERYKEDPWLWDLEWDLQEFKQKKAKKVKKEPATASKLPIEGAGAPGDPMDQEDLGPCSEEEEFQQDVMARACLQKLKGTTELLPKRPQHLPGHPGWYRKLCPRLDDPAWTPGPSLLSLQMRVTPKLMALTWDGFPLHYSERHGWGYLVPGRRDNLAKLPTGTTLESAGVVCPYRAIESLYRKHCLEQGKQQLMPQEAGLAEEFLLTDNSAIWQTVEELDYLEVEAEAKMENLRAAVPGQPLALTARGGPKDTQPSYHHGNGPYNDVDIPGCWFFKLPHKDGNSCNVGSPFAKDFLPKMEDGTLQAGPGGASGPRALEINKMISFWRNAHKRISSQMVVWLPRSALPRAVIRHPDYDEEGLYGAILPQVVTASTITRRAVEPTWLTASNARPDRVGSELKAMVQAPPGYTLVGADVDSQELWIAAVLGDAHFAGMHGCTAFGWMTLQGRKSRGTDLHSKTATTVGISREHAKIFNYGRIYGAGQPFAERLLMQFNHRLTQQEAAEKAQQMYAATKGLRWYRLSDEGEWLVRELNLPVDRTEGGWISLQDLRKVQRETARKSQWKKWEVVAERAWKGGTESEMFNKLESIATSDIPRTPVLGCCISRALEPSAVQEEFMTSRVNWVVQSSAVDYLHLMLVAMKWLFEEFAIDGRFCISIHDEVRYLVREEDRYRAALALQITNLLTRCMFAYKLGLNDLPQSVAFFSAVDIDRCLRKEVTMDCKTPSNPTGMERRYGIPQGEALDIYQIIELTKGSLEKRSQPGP
T1 sequence (Q9UHN1 1-485 partner): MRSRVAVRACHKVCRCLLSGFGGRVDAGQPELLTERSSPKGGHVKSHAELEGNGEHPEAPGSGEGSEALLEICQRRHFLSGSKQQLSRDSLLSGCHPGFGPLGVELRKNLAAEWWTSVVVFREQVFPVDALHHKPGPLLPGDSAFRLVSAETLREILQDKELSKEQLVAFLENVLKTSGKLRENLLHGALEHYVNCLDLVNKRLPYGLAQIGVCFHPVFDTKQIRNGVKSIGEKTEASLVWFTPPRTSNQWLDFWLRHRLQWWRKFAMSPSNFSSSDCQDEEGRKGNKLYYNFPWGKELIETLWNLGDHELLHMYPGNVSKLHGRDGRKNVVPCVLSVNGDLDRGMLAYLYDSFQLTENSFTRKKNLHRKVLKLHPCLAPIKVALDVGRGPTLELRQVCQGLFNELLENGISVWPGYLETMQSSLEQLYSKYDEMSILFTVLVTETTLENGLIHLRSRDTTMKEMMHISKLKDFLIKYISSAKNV
The assay is described as follows: DNA polymerization assay, POLγA:G848S mutant. As to conditions: stimulation of polymerase activity, primed M13mp18 ssDNA, 37° C. 2 hours; read-out: G848S AC50. The format is biochemical.
The term AC50 denotes the concentration giving half of the maximal activity seen. For `Cc1cc(S(=O)(=O)Nc2cccc(-c3ncc(CO)s3)c2)c(C)cc1Cl` [Example 89, 4-chloro-N-(3-(5-(hydroxymethyl)thiazol-2-yl)phenyl)-2,5-dimethylbenzenesulfonamide], the AC50 came to 3 µM.
For `Cc1cc(S(=O)(=O)Nc2ccc(-c3ncc(CN(C)C)s3)cc2)c(C)cc1Cl` [Example 86, 4-chloro-N-(4-(5-((dimethylamino)methyl)thiazol-2-yl)phenyl)-2,5-dimethylbenzenesulfonamide], the AC50 was above 100 µM.
For the compound `Cc1cnc(-c2ccccc2NS(=O)(=O)c2cc(C)c(Cl)cc2C)s1` [Example 79, 4-chloro-2,5-dimethyl-N-(2-(5-methylthiazol-2-yl)phenyl)benzenesulfonamide], the AC50 is above 10 µM.
For the compound `Cc1cc(S(=O)(=O)NC2CCOc3c(Cl)cccc32)c(C)cc1Cl` (stereo not drawn) [Example 82, 4-chloro-N-(8-chlorochroman-4-yl)-2,5-dimethylbenzenesulfonamide], the AC50 was above 10 µM.
For `Cc1cc(S(=O)(=O)Nc2cc(-c3ccccc3)no2)c(C)cc1Cl` [Example 84, 4-chloro-2,5-dimethyl-N-(3-phenylisoxazol-5-yl)benzenesulfonamide], the concentration at half-maximal activity (AC50) was above 10 µM.
For the compound `Cc1cnc(-c2ccc(NS(=O)(=O)c3cc(C)c(Cl)cc3C)cc2)s1` [Example 83, 4-chloro-2,5-dimethyl-N-(4-(5-methylthiazol-2-yl)phenyl)benzenesulfonamide], the AC50 is 3 µM.
On to `Cc1nc2cc(NS(=O)(=O)c3cc(C)c(Cl)cc3C)ccc2o1` [Example 75, 4-chloro-2,5-dimethyl-N-(2-methylbenzo[d]oxazol-5-yl)benzenesulfonamide], for which the AC50 was above 100 µM.
With `Cc1nc2cccc(NS(=O)(=O)c3cc(C)c(Cl)cc3C)c2s1` [Example 85, 4-chloro-2,5-dimethyl-N-(2-methylbenzo[d]thiazol-7-yl)benzenesulfonamide], the half-maximal activity concentration (AC50) is above 100 µM.
For `Cc1cc(S(=O)(=O)Nc2csc(-c3ccccc3)n2)c(C)cc1Cl` [Example 81, 4-chloro-2,5-dimethyl-N-(2-phenylthiazol-4-yl)benzenesulfonamide], the AC50 came out at 2 µM.
On to `Cc1nc2ccc(NS(=O)(=O)c3cc(C)c(Cl)cc3C)cc2s1` [Example 73, 4-chloro-2,5-dimethyl-N-(2-methylbenzo[d]thiazol-6-yl)benzenesulfonamide], for which the AC50 worked out at 14 µM.
For `Cc1csc(-c2ccccc2NS(=O)(=O)c2cc(C)c(Cl)cc2C)n1` [Example 80, 4-chloro-2,5-dimethyl-N-(2-(4-methylthiazol-2-yl)phenyl)benzenesulfonamide], the AC50 is above 10 µM.
For `Cc1cc(S(=O)(=O)Nc2ccc3nc(-c4ccccc4)sc3c2)c(C)cc1Cl` [Example 74, 4-chloro-2,5-dimethyl-N-(2-phenylbenzo[d]thiazol-6-yl)benzenesulfonamide], the AC50 was above 100 µM.
As to `COC(=O)c1cnc(-c2cccc(NS(=O)(=O)c3cc(C)c(Cl)cc3C)c2)s1` [Example 88, methyl 2-(3-((4-chloro-2,5-dimethylphenyl)sulfonamido)phenyl) thiazole-5-carboxylate], the AC50 is above 100 µM.
With `Cc1cc(S(=O)(=O)Nc2ccccc2-c2ncco2)c(C)cc1Cl` [Example 77, 4-chloro-2,5-dimethyl-N-(2-(oxazol-2-yl)phenyl)benzenesulfonamide], the AC50 is above 100 µM.
On to `Cc1cc(S(=O)(=O)Nc2cccc(-c3ncc(CN(C)C)s3)c2)c(C)cc1Cl` [Example 87, 4-chloro-N-(3-(5-((dimethylamino)methyl)thiazol-2-yl)phenyl)-2,5-dimethylbenzenesulfonamide], for which the AC50 was 14 µM.
`Cc1cc(S(=O)(=O)Nc2ccc3ccn(C)c3c2)c(C)cc1Cl` [Example 72, 4-chloro-2,5-dimethyl-N-(1-methyl-1H-indol-6-yl)benzenesulfonamide]: the AC50 came out at 98 µM.
On to `Cc1cc(S(=O)(=O)Nc2cccc(-c3ncc(C4CC4)s3)c2)c(C)cc1Cl` [Example 76, 4-chloro-N-(3-(5-cyclopropylthiazol-2-yl)phenyl)-2,5-dimethylbenzenesulfonamide], for which the AC50 was determined as 3 µM.
As to `Cc1cnc(-c2cccc(S(=O)(=O)Nc3cc(C)c(Cl)cc3C)c2)s1` [Example 78, N-(4-chloro-2,5-dimethylphenyl)-3-(5-methylthiazol-2-yl)benzenesulfonamide], the AC50 is above 10 µM.
Then `Cc1cc(S(=O)(=O)Nc2cccc(-c3ncc(C(=O)O)s3)c2)c(C)cc1Cl` [Example 90, 2-(3-((4-chloro-2,5-dimethylphenyl)sulfonamido)phenyl) thiazole-5-carboxylic acid], with above 100 µM; and `Cc1cc(S(=O)(=O)Nc2cccc(C(=O)N3CCCN(C(=O)C(C)C)CC3)c2)c(C)cc1Cl` [Example 91, 4-chloro-N-(3-(4-isobutyryl-1,4-diazepane-1-carbonyl)phenyl)-2,5-dimethylbenzenesulfonamide], with above 100 µM.
With `Cc1cc(S(=O)(=O)Nc2csc(-c3ccnn3C)n2)c(C)cc1Cl` [Example 182, 4-chloro-2,5-dimethyl-N-(2-(1-methyl-1H-pyrazol-5-yl)thiazol-4-yl)benzenesulfonamide] the figure was 0.9 µM.
